The values below come from US20100209530A1, “ANTI-ALLERGEN AGENT” (priority 2007, published 2010).

For data set [1], the target named is T1, Dermatophagoides farinae allergen (DerfII) (Dermatophagoides farinae, UniProt Q00855).
T1 sequence (Q00855 18-146): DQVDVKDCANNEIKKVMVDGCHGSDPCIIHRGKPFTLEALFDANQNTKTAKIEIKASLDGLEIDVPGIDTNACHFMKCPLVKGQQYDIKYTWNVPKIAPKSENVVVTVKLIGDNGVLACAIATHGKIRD
The format is biochemical. The settings on record: 1 mg of sample.
Procedure: (§3) The anti-allergen effect of the present invention is evaluated by a sandwich ELISA method, which is widely known as a method for detecting/quantifying an antigen, and is expressed as the percentage allergen inactivation shown in Equation 1. The initial amount of allergen means the amount of allergen used in an ELISA evaluation, and the amount of allergen remaining means the amount of allergen after contacting a sample.
(§4) Percentage allergen inactivation=(1−amount of allergen remaining/initial amount of allergen)×100(%) <Equation 1>
Anti-allergen effects were evaluated by a sandwich ELISA method employing Dermatophagoides farinae allergen (allergen generally called DerfII) and Cryptomeria japonica pollen allergen (allergen generally called Cryj1). […]
1 mg or 10 mg of a sample was weighed, and 500 μL of Dermatophagoides farinae allergen (DerfII) prepared at 40 ng/mL using an antigen diluent was added thereto. […] After 30 minutes, 2N sulfuric acid was added so as to stop the reaction, and the absorbance at 490 nm was measured. The results were expressed as percentage allergen inactivation of various samples by determining the relationship between amount of allergen and absorbance from an evaluation carried out without using a sample, determining the amount of allergen remaining from the absorbance obtained when evaluating various types of samples, and calculating from equation 1.

In data set [2] the target is T2, Cryptomeria japonica pollen allergen (Cryj1) (Cryptomeria japonica, UniProt P18632).
T2 sequence (P18632 22-374): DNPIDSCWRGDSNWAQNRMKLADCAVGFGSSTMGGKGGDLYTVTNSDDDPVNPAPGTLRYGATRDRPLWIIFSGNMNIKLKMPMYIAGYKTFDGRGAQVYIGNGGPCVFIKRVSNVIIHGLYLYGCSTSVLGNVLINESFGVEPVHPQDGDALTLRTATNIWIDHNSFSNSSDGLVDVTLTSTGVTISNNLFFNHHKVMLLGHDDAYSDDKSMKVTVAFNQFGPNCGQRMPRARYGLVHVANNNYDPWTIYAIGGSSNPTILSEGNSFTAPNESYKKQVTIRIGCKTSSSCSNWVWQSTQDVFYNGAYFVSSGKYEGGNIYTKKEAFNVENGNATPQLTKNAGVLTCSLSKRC
The data set is classed as biochemical. The following applies: 1 mg of sample.
Procedure: as §3, §4
The test procedure for the sandwich ELISA method when Cryptomeria japonica pollen allergen was used was as follows.
1 mg or 10 mg of a sample was weighed, and 500 μL of Cryptomeria japonica pollen allergen (Cryj1) prepared at 10 ng/mL using an antigen diluent was added thereto. […] After 2 hours, the antibody liquid was discarded, each well was washed with washing buffer, a substrate liquid was added to each well, and the wells were allowed to stand at room temperature. After 10 minutes, 2N sulfuric acid was added so as to stop the reaction, and the absorbance at 490 nm was measured. The results are expressed as percentage allergen inactivation of various types of samples by calculating from Equation 1 by the same method as for Dermatophagoides farinae allergen.

Data set [3] addresses T3, Dermatophagoides farinae allergen (Den) (Dermatophagoides farinae, UniProt Q00855).
T3 sequence (Q00855 18-146): T1 sequence (Q00855 18-146)
The data set can be described thus: ELISA, anti-allergen effect of processed fiber product. The data set is classed as biochemical. The settings on record: fabric after washing in 500 mL ion exchanged water 1 minute, air-dried; standardized to blank = 0. The protocol: When a test target is an article comprising another substance in addition to an anti-allergen agent, such as a coating agent containing an anti-allergen agent, a resin kneaded with an anti-allergen agent, or a fiber having an anti-allergen agent attached thereto, a blank test is carried out using the same article except that the anti-allergen agent is excluded, and other measurement results may be standardized so that the percentage allergen inactivation of the blank test becomes 0. In this case, as long as it is stated that a measurement result is standardized, the value after standardization may be used as the percentage allergen inactivation.
The anti-allergen effects of a processed fiber product were evaluated as percentage anti-allergen inactivation from Equation 1 above by measuring absorbance by the same ELISA method as for a solid acid powder using Dermatophagoides farinae allergen (Den) as the allergen and dividing […] of fiber into 8, and comparing with the absorbance when a fiber product having no solid acid added thereto was used.

A short description of data set [4]: Yellowness (YI value, JIS-K7103-1977). The data set is classed as physicochemical. The settings on record: powder. An excerpt:
With regard to a preferred yellowness, the YI value in accordance with JIS-K7103-1977 is preferably 50 or less, more preferably 20 or less, and yet more preferably 15 or less.

The nature of data set [5]: Discoloration test in PBS or ion exchanged water. The data set is classed as physicochemical. The protocol:
(§1) 1 mg of anti-allergen agent (1) of Example 2-1 was placed in 0.5 mL of PBS (pH 7.29, containing 0.1% Tween 20 and 0.001% BSA) and allowed to stand at room temperature for 3 days, color change and allergen inactivating effect were then measured, and the results are shown in Table 7.
1 mg of anti-allergen agent (1) of Example 2-1 was placed in 0.5 mL of ion exchanged water (pH 6.37) and allowed to stand at room temperature for 7 days, color change was then examined, and the result is shown in Table 7.
(§2) 1 mg of tannic acid was placed in 0.5 mL of PBS (pH 7.29, containing 0.1% Tween 20 and 0.001% BSA) and allowed to stand at room temperature for 3 days, color change and allergen inactivating effect were then measured, and the results are shown in Table 7.
1 mg of tannic acid was placed in 0.5 mL of ion exchanged water (pH 6.37) and allowed to stand at room temperature for 7 days, color change was examined, and the result is shown in Table 7.

Another data set relates to allergen. The data set is described as follows: Allergen inactivating effect after standing in PBS (discoloration test). The format is biochemical. The settings on record: 1 mg after 3 days in 0.5 mL PBS at room temperature. How it is done:
as §1, §2

Take `O=C(OC[C@H]1O[C@@H](OC(=O)c2cc(O)c(O)c(OC(=O)c3cc(O)c(O)c(O)c3)c2)[C@H](OC(=O)c2cc(O)c(O)c(OC(=O)c3cc(O)c(O)c(O)c3)c2)[C@@H](OC(=O)c2cc(O)c(O)c(OC(=O)c3cc(O)c(O)c(O)c3)c2)[C@@H]1OC(=O)c1cc(O)c(O)c(OC(=O)c2cc(O)c(O)c(O)c2)c1)c1cc(O)c(O)c(OC(=O)c2cc(O)c(O)c(O)c2)c1` [Comparative Example 2-1, Tannic Acid]: the “Percentage allergen inactivation (%) DerfII” value in data set [1] turned out to be 95%. The “Percentage allergen inactivation (%) Cryj1” value in data set [2] was 97%. Besides, the “Percentage allergen inactivation (%)” value in data set [3] is on record as “activity disappeared after washing”; in the data set with allergen, “Less than 50%”. For the same compound, the Yellowness is listed as 71.28 in data set [4] and 71.8 in data set [4] (listed as tannic acid). The “Color of solution (after evaluation)” value is given as “Brown” in data set [5] (1 mg in 0.5 mL PBS pH 7.29 (0.1% Tween 20, 0.001% BSA), room temperature, 3 days) and “Brown” in data set [5] (1 mg in 0.5 mL ion exchanged water pH 6.37, room temperature, 7 days).
